{
  "source": "patent US6609014B1",
  "about": "“Use of PDT to inhibit intimal hyperplasia” (QLT Inc., priority 1999, dated 2003)",
  "key": {"[1]": {"system": "endothelial lining of the vein lumen", "test": "von Willebrand factor immunostaining of AV fistula veins 48 hours after PDT", "type": "in vivo, Domestic swine", "details": "low-dose PDT", "source_text": "In Example 4, the cell content of the vein wall was also examined using immunohistochemical techniques to detect SMCs (mouse anti-human ax-smooth muscle actin, clone 1A4 (Dako, Mississauga, Canada)), macrophages (mouse monoclonal anti-human monocyte/macrophage, clone MAC 387 (Serotec Inc.), T cells (Rabbit anti-human CD3 with Neo marker), and endothelial cells (rabbit polyclonal anti-human von Willebrand Factor (Dako, Mississauga, Canada)). SMCs were counted using the Optimas image analysis program and macrophages were counted manually using Image Pro Plus 3 (Media Cybernetics, Silver Spring, Md., USA).\nFor the purposes of determining the early cellular effects of PDT on the vein, bilateral AV fistulae were created in six pigs and treated sides were given 0.15 mg BPD-MA (0.15 mg/2 mL) and 40 minutes OR light. After 48 hours these pigs were sacrificed and the fistulae were recovered and processed for histological evaluation. This is not enough time for IH to have developed, but the cellular activation which leads to IH may be detectable. […] Immunocytochemistry for the proliferating cell nuclear antigen (PCNA) was used to assess cell proliferation in the tissue (Table 3).\nImmunocytochemical staining for von Willebrand factor was performed to characterize the effects of PDT on the endothelial lining of the vein lumen. […]"}, "[2]": {"system": "intimal hyperplasia in the vein of AV fistulae between the carotid artery and the jugular vein", "test": "Three month efficacy study: PDT of bilateral AV fistulae, morphometric analysis", "type": "in vivo, Domestic swine", "set-up": "key to PDT-treated fistula thrombosed (T): T = thrombosed", "method": "A porous balloon catheter was introduced into the lumen of veins to deliver either 2 mL of BPD-MA (diluted in 5% dextrose in water) or 5% dextrose in water (control), at a delivery pressure of 2 mm Hg. Two minutes later, the photosensitizer (or dextrose) was rinsed out with heparinized saline before light exposure.\nThe adventitia of the vein was exposed to the operating room (OR) lamp light for 40 minutes (a combination of incandescent bulbs and fluorescence tubes—approximately 1 J/cm^2).\nMeasurements and observations were made by morphometric analysis of cross-sections of fistulae stained with Verhoeff's elastic to assess the integrity of the vessel wall and also clearly demarcate the internal elastic lamina (IEL) for the measurement of IH. Areas within the lumen and those circumscribed by the internal elastic lamina (IEL) and the external elastic lamina (EEL) were measured directly using the Optimas (Optimas Corporation, Bothell, Wash., USA) program. The areas of the intima and the media were calculated by subtraction: intimal area equals the […], and medial area equals EEL area minus IEL area.\nA three month study was conducted with bilateral end-to side AV fistulae between the carotid artery and the jugular vein created in 11 pigs. One fistula was treated with 0.15 mg/2 mL BPD-MA and 1 J/cm^2 OR lamp light delivered over 40 min; the control fistula received 5% Dextrose and light. Animals were sacrificed 3 months after PDT. The fistulae were surgically excised and processed for histology and morphometric analysis as described previously. Only 27% of the PDT treated and 45% of the control fistulae were patent by 3 months. Occlusion appeared to be due to both early thrombosis, possibly related to the surgical procedure or late thrombosis due to extensive IH and lumen narrowing.\nThere were three animals for which patent PDT-treated and control fistulae could be recovered. The percent of the lumen compromised by IH (% LCIH=[…]) was calculated for the first two complete blocks from the tip of the anastamosis for these samples."}, "[3]": {"details": "0.15 mg VERTEPORFIN/2 mL, 1 J/cm^2 OR lamp light over 40 min, three months, individual pigs"}, "[4]": {"details": "0.15 mg VERTEPORFIN, three months, group mean"}, "[5]": {"details": "0.15 mg VERTEPORFIN, three months, group mean (n=3)"}, "[6]": {"details": "0.15 mg VERTEPORFIN, three months, individual pigs"}, "[7]": {"details": "0.15 mg VERTEPORFIN, three months, individual pigs (FIG. 9: percent medial hyperplasia)"}, "[8]": {"details": "0.15 mg/2 mL BPD-MA, three months"}},
  "note": "Values joined by “and” are separate entries in the source; they are usually repeats but may differ in a detail not shown here. Identical values can stand only once.",
  "data": [
    {"substance": "benzoporphyrin derivative monoacid ring A [BPD-MA]", "values": [
      {"measurement": "Damage to endothelial cell lining of treated veins", "setting": "[1]", "result": "did not appear to damage the endothelial cell lining"},
      {"measurement": "Percent Lumen Compromised by Intimal Hyperplasia, PDT, Block #2", "setting": "[2]; [3]", "result": "2% and 32.3% and 41.7% and 13.7% and 46.4%"},
      {"measurement": "Percent Lumen Compromised by Intimal Hyperplasia, PDT, PDT (Block#1)", "setting": "[2]; [3]", "result": "3.1% and 30.2% and 17.3%"},
      {"measurement": "Medial Hyperplasia, PDT, Block#1, Mean", "setting": "[2]; [4]", "result": 21.3},
      {"measurement": "Medial Hyperplasia, PDT, Block#2, Mean", "setting": "[2]; [4]", "result": 14.9},
      {"measurement": "Percent Lumen Compromised by Intimal Hyperplasia, PDT, Block #1, Mean", "setting": "[2]; [4]", "result": 16.9, "unit": "%"},
      {"measurement": "Percent Lumen Compromised by Intimal Hyperplasia, PDT, Block #2, Mean", "setting": "[2]; [4]", "result": 26.9, "unit": "%"},
      {"measurement": "Percent Lumen Compromised by Intimal Hyperplasia, Control-PDT, Block #1, Mean", "setting": "[2]; [5]", "result": 16.7, "unit": "%"},
      {"measurement": "Percent Lumen Compromised by Intimal Hyperplasia, Control-PDT, Block #2, Mean", "setting": "[2]; [5]", "result": 8.5, "unit": "%"},
      {"measurement": "PDT-treated fistula thrombosed (T)", "setting": "[2]; [6]", "result": "T"},
      {"measurement": "Percent Lumen Compromised by Intimal Hyperplasia, Control-PDT, Block #1", "setting": "[2]; [6]", "result": "−0.4% and 18.8% and 31.8%"},
      {"measurement": "Percent Lumen Compromised by Intimal Hyperplasia, Control-PDT, Block #2", "setting": "[2]; [6]", "result": "17.6% and 14.5% and −6.6%"},
      {"measurement": "Medial Hyperplasia, PDT, Block#1", "setting": "[2]; [7]", "result": "8.4 and 38.1 and 17.3"},
      {"measurement": "Medial Hyperplasia, PDT, Block#2", "setting": "[2]; [7]", "result": "8.1 and 27.5 and 9.2"},
      {"measurement": "PDT treated fistulae patent by 3 months", "setting": "[2]; 0.15 mg/2 mL BPD-MA, 1 J/cm^2 OR lamp light over 40 min, 11 pigs, control 45%", "result": 27, "unit": "%"},
      {"measurement": "Relative reduction of intimal hyperplasia, block 1", "setting": "[2]; [8]", "result": 46, "unit": "%"},
      {"measurement": "Relative reduction of intimal hyperplasia, block 2", "setting": "[2]; [8]", "result": 27, "unit": "%"},
      {"measurement": "PDT effect on the media of the veins", "setting": "[2]; after 3 months", "result": "little PDT effect"},
      {"measurement": "IH in block of tissue immediately adjacent to the anastamosis", "setting": "[2]; three animals with both fistulae patent, three months", "result": "marked decrease in IH"}
    ]}
  ]
}
